Test results taken from US6444617B1, “Fused-heterocycle dicarboxylic acid diamide derivatives or salts thereof, herbicide and usage thereof” (Nihon Nohyaku Co., Ltd., priority 1998, dated 2002).

How the values were obtained:
Type in all cases: in vivo
[1] = tested on: barnyard grass (Echinochloa crus-galli Beauv.); experiment: Test Example 1: herbicidal effect on paddy field weeds before emergence; conditions: Dosage 5 kg/ha
Procedure, shortened: (§1)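 Grading reflects percent control relative to untreated plots, evaluated three weeks post-application. Treatment was a soil application of compound solution, predetermined dose, made to paddy-state pots before weed seeds germinated.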

[2] = tested on: bulrush (Scirpus juncoides Roxb.); experiment: as above; conditions: Dosage 5 kg/ha
Procedure, shortened: as §1

[3] = tested on: forxtail grass (Alopecurus aequalis var. amurensis Ohwi), Am; experiment: Test Example 3: herbicidal effect on upland weeds before emergence; conditions: foxtail grass, dosage 5 kg/ha
Procedure, shortened: (§2)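 Test compound, formulated as a liquid at a fixed concentration, is sprayed before weed emergence. Two weeks later, kill rate is derived and herbicidal activity is rated.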

[4] = tested on: bird's eye speedwell (Veronica persica Poir.), Vp; experiment: as above; conditions: dosage 5 kg/ha
Procedure, shortened: as §2

[5] = tested on: cleavers (Galium aparine L.), Ga; experiment: as above; conditions: dosage 5 kg/ha
Procedure, shortened: as §2

[6] = tested on: barnyard grass (Echinochloa crus-galli Beauv.), Ec; experiment: as above; conditions: dosage 5 kg/ha
Procedure, shortened: as §2

[7] = tested on: velvetleaf (Abutilon theophtasti L.), At; experiment: as above; conditions: dosage 5 kg/ha
Procedure, shortened: as §2

[8] = tested on: cocklebur (Xanthium strumarium L.), Xs; experiment: as above; conditions: dosage 5 kg/ha
Procedure, shortened: as §2

[9] = tested on: barnyard grass (Echinochloa crus-galli Beauv.); experiment: Test Example 2: herbicidal effect on paddy field weeds after emergence; conditions: Dosage 5 kg/ha; one-leaved stage; 21 days after treatment
Procedure, shortened: (§3)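 Weeds were sown in 1/10000 are pots of soil flooded to paddy conditions and grown to the one-leaf stage, then the soil was treated with a solution of compound at a predetermined dosage.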

[10] = tested on: bulrush (Scirpus juncoides Roxb.); experiment: as above; conditions: Dosage 5 kg/ha; one-leaved stage; 21 days after treatment
Procedure, shortened: as §3

[11] = tested on: monochoria (Monochoria vaginalis Presl); experiment: as above; conditions: Dosage 5 kg/ha; one-leaved stage; 21 days after treatment
Procedure, shortened: as §3

[12] = tested on: wheat (Wh); experiment: Test Example 3: phytotoxicity to upland crop plants, treatment before emergence; conditions: dosage 5 kg/ha
Procedure, shortened: (§4)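 A sprayed liquid agent with a prescribed concentration of active compound was applied pre-emergence. Visual phytotoxicity on soybean and wheat was rated by criterion two weeks (14 days) after application, concurrently with the herbicidal assessment.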

[13] = tested on: soybean plant (So); experiment: as above; conditions: dosage 5 kg/ha
Procedure, shortened: as §4

[14] = tested on: forxtail grass (Alopecurus aequalis var. amurensis Ohwi), Am; experiment: Test Example 4: herbicidal effect on upland weeds after emergence; conditions: dosage 5 kg/ha; sprayed after emergence; judged 14 days after treatment
Procedure, shortened: (§5)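 Soil vats; sown weeds + soybean/wheat; spray at leaf-stage, prescribed compound concentration; weed-kill rate judged day 14.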

[15] = tested on: bird's eye speedwell (Veronica persica Poir.), Vp; experiment: as above; conditions: dosage 5 kg/ha; sprayed after emergence; judged 14 days after treatment
Procedure, shortened: as §5

[16] = tested on: cleavers (Galium aparine L.), Ga; experiment: as above; conditions: dosage 5 kg/ha; sprayed after emergence; judged 14 days after treatment
Procedure, shortened: as §5

[17] = tested on: barnyard grass (Echinochloa crus-galli Beauv.), Ec; experiment: as above; conditions: dosage 5 kg/ha; sprayed after emergence; judged 14 days after treatment
Procedure, shortened: as §5

[18] = tested on: velvetleaf (Abutilon theophtasti L.), At; experiment: as above; conditions: dosage 5 kg/ha; sprayed after emergence; judged 14 days after treatment
Procedure, shortened: as §5

[19] = tested on: cocklebur (Xanthium strumarium L.), Xs; experiment: as above; conditions: dosage 5 kg/ha; sprayed after emergence; judged 14 days after treatment
Procedure, shortened: as §5

[20] = tested on: wheat; experiment: Test Example 4: phytotoxicity to upland crop plants, treatment after emergence; conditions: dosage 5 kg/ha, sprayed after emergence, judged 14 days after treatment
Procedure, shortened: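 Seeds sown in soil and covered. Plants raised to specified leaf stages. Agent with test compound at a prescribed concentration sprayed. Herbicidal effect and crop damage scored after 14 days as weed-killing rate.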

[21] = tested on: soybean plant; experiment: as above; conditions: dosage 5 kg/ha, sprayed after emergence, judged 14 days after treatment
Procedure, shortened: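 Post-emergence foliar spray, compound at prescribed concentration, applied at defined leaf stages; weeds plus soybean/wheat grown in soil vats. Read-out: weed-killing rate and crop injury, 14 d post-treatment.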

CCCNC(=O)c1nc2c(cc1C(=O)Nc1cccc(Cl)c1C)OCCC2 [compound 498]
Pre-emergence treatment Barnyard grass (herbicidal effect) [1]: 5 (Weed-killing rate is 100%.)
Pre-emergence treatment Bulrush (herbicidal effect) [2]: 5 (Weed-killing rate is 100%.)
Herbicidal effect Am [3]: 5 (Weed-killing rate is 100%.)
Herbicidal effect Vp [4]: 5 (Weed-killing rate is 100%.)
Herbicidal effect Ga [5]: 4 (Weed-killing rate is 90-99%.)
Herbicidal effect Ec [6]: 5 (Weed-killing rate is 100%.)
Herbicidal effect At [7]: 5 (Weed-killing rate is 100%.)
Herbicidal effect Xs [8]: 4 (Weed-killing rate is 90-99%.)
Post-emergence treatment Barnyard grass (herbicidal effect) [9]: 5 (Weed-killing rate is 100%.)
Post-emergence treatment Bulrush (herbicidal effect) [10]: 5 (Weed-killing rate is 100%.)
Post-emergence treatment Monochoria (herbicidal effect) [11]: 5 (Weed-killing rate is 100%.)
Phytotoxicity Wh [12]: 4 (Crop-killing rate is 90-99%.)
Phytotoxicity So [13]: 4 (Crop-killing rate is 90-99%.)
Herbicidal effect Am [14]: 5 (Weed-killing rate is 100%.)
Herbicidal effect Vp [15]: 5 (Weed-killing rate is 100%.)
Herbicidal effect Ga [16]: 4 (Weed-killing rate is 90-99%.)
Herbicidal effect Ec [17]: 5 (Weed-killing rate is 100%.)
Herbicidal effect At [18]: 5 (Weed-killing rate is 100%.)
Herbicidal effect Xs [19]: 4 (Weed-killing rate is 90-99%.)
Phytotoxicity Wh [20]: 4 (Crop-killing rate is 90-99%.)
Phytotoxicity So [21]: 4 (Crop-killing rate is 90-99%.)

CCCNC(=O)c1nc2c(cc1C(=O)Nc1c(CC)ccc(Cl)c1CC)CCCS2 [compound 510]
Pre-emergence treatment Barnyard grass (herbicidal effect) [1]: 5 (Weed-killing rate is 100%.)
Pre-emergence treatment Bulrush (herbicidal effect) [2]: 5 (Weed-killing rate is 100%.)
Herbicidal effect Am [3]: 5 (Weed-killing rate is 100%.)
Herbicidal effect Vp [4]: 5 (Weed-killing rate is 100%.)
Herbicidal effect Ga [5]: 5 (Weed-killing rate is 100%.)
Herbicidal effect Ec [6]: 5 (Weed-killing rate is 100%.)
Herbicidal effect At [7]: 5 (Weed-killing rate is 100%.)
Herbicidal effect Xs [8]: 5 (Weed-killing rate is 100%.)
Post-emergence treatment Barnyard grass (herbicidal effect) [9]: 5 (Weed-killing rate is 100%.)
Post-emergence treatment Bulrush (herbicidal effect) [10]: 5 (Weed-killing rate is 100%.)
Post-emergence treatment Monochoria (herbicidal effect) [11]: 5 (Weed-killing rate is 100%.)
Phytotoxicity Wh [12]: 5 (Crop-killing rate is 100%.)
Phytotoxicity So [13]: 4 (Crop-killing rate is 90-99%.)
Herbicidal effect Am [14]: 5 (Weed-killing rate is 100%.)
Herbicidal effect Vp [15]: 5 (Weed-killing rate is 100%.)
Herbicidal effect Ga [16]: 5 (Weed-killing rate is 100%.)
Herbicidal effect Ec [17]: 5 (Weed-killing rate is 100%.)
Herbicidal effect At [18]: 5 (Weed-killing rate is 100%.)
Herbicidal effect Xs [19]: 5 (Weed-killing rate is 100%.)
Phytotoxicity Wh [20]: 5 (Crop-killing rate is 100%.)
Phytotoxicity So [21]: 4 (Crop-killing rate is 90-99%.)

CCc1ccc(Cl)c(CC)c1NC(=O)c1cc2c(nc1C(=O)NC1CCCC1)SCCC2 [compound 519]
Pre-emergence treatment Barnyard grass (herbicidal effect) [1]: 5 (Weed-killing rate is 100%.)
Pre-emergence treatment Bulrush (herbicidal effect) [2]: 5 (Weed-killing rate is 100%.)
Herbicidal effect Am [3]: 5 (Weed-killing rate is 100%.)
Herbicidal effect Vp [4]: 5 (Weed-killing rate is 100%.)
Herbicidal effect Ga [5]: 5 (Weed-killing rate is 100%.)
Herbicidal effect Ec [6]: 5 (Weed-killing rate is 100%.)
Herbicidal effect At [7]: 5 (Weed-killing rate is 100%.)
Herbicidal effect Xs [8]: 5 (Weed-killing rate is 100%.)
Post-emergence treatment Barnyard grass (herbicidal effect) [9]: 5 (Weed-killing rate is 100%.)
Post-emergence treatment Bulrush (herbicidal effect) [10]: 5 (Weed-killing rate is 100%.)
Post-emergence treatment Monochoria (herbicidal effect) [11]: 5 (Weed-killing rate is 100%.)
Phytotoxicity Wh [12]: 5 (Crop-killing rate is 100%.)
Phytotoxicity So [13]: 4 (Crop-killing rate is 90-99%.)
Herbicidal effect Am [14]: 5 (Weed-killing rate is 100%.)
Herbicidal effect Vp [15]: 5 (Weed-killing rate is 100%.)
Herbicidal effect Ga [16]: 5 (Weed-killing rate is 100%.)
Herbicidal effect Ec [17]: 5 (Weed-killing rate is 100%.)
Herbicidal effect At [18]: 5 (Weed-killing rate is 100%.)
Herbicidal effect Xs [19]: 5 (Weed-killing rate is 100%.)
Phytotoxicity Wh [20]: 5 (Crop-killing rate is 100%.)
Phytotoxicity So [21]: 4 (Crop-killing rate is 90-99%.)
